For one experiment, the target named is Human ACC2 (Homo sapiens, UniProt O00763). Briefly: In vitro ACC2 inhibition assay (ADP-Glo), human ACC2. The format is biochemical. To be noted: 5 nM ACC2, 20 μM ATP, 20 μM acetyl-CoA. (ADP-Glo turns the ADP formed in a reaction into a luminescent signal.)
Another experiment concerns C. krusei ATCC 6258. Briefly: Anti-Fungal Activity Assay (broth microtiter MIC), C. krusei. The format is cell-based, Candida krusei. The conditions noted are these: for MIC: Pichia kudriavzevii, ATCC6258, 48 h, read-out: MIC C. krusei ATCC 6258. As for the experimental part:
(§1) Compounds of the present invention were evaluated in an Anti-Fungal Activity Assay. An exemplary procedure for the assay, which measures the susceptibility of various Candida species to anti-fungal compounds, follows. Compounds to be tested (including fluconazole and amphotericin B) were dissolved in DMSO to obtain a solution having a concentration of 1 mg/mL. […] All species were grown from frozen stock by directly plating on to freshly prepared Sabouraud Dextrose agar (BD, Difco) and incubated overnight in ambient air at 35° C. for 24 h. A direct suspension was prepared in RPMI 1640+MOPS (Lonza, Biowhittaker) by taking individual colonies from the overnight cultures using sterile swabs soaked in sterile saline. The concentration of the suspension was determined using pre-determined standard curves. […] Broth microtiter MIC challenge plates were prepared following CLSI guidelines (M27-A3, Vol. 28 No. 14). The original CLSI guidelines focused on reading Candida MICs after 48 h of incubation. As reading after only 24 h offers a clear advantage of patient care, QC limits are being established for all drugs at 24 h. That being said there are no known interpretive breakpoints for amphotericin B at 24 h and the current fluconazole interpretive breakpoints are based on a 48 h reading. The MIC breakpoints for the test compounds were recorded at 48 h, and for the soraphen the 24 h time-point was added. All MIC determinations were achieved by visually comparing the growth found in the antibiotic challenged wells to that of the growth control.

For experiment [1], the system named is C. parapsilosis ATCC 22019. The experiment is described as follows: Anti-Fungal Activity Assay (broth microtiter MIC), C. parapsilosis. To be noted: Lodderomyces parapsilosis, ATCC22019, 48 h, read-out: MIC C. parapsilosis ATCC 22019. The format is cell-based, Candida parapsilosis. As for the experimental part: as §1
For a further experiment, the system named is C. albicans ATCC 90028. The experiment is described as follows: Anti-Fungal Activity Assay (broth microtiter MIC), C. albicans. The format is cell-based, Candida albicans. To be noted: for MIC: Candida albicans, ATCC90028, 48 h, read-out: MIC C. albicans ATCC 90028. As for the experimental part: as §1
The mark [2] stands for this setting: 3 replicates, MIC recorded at 48 h.

The source of these data is US20190330224A1, “ACC INHIBITORS AND USES THEREOF” (Gilead Apollo, LLC, priority 2015, published 2019).

Structures are written as SMILES. Values after ≈ are worked out from the molar mass of the structure shown. Where two headings read alike, the source gives them in different places.

Sequence of Human ACC2 (O00763 whole entry): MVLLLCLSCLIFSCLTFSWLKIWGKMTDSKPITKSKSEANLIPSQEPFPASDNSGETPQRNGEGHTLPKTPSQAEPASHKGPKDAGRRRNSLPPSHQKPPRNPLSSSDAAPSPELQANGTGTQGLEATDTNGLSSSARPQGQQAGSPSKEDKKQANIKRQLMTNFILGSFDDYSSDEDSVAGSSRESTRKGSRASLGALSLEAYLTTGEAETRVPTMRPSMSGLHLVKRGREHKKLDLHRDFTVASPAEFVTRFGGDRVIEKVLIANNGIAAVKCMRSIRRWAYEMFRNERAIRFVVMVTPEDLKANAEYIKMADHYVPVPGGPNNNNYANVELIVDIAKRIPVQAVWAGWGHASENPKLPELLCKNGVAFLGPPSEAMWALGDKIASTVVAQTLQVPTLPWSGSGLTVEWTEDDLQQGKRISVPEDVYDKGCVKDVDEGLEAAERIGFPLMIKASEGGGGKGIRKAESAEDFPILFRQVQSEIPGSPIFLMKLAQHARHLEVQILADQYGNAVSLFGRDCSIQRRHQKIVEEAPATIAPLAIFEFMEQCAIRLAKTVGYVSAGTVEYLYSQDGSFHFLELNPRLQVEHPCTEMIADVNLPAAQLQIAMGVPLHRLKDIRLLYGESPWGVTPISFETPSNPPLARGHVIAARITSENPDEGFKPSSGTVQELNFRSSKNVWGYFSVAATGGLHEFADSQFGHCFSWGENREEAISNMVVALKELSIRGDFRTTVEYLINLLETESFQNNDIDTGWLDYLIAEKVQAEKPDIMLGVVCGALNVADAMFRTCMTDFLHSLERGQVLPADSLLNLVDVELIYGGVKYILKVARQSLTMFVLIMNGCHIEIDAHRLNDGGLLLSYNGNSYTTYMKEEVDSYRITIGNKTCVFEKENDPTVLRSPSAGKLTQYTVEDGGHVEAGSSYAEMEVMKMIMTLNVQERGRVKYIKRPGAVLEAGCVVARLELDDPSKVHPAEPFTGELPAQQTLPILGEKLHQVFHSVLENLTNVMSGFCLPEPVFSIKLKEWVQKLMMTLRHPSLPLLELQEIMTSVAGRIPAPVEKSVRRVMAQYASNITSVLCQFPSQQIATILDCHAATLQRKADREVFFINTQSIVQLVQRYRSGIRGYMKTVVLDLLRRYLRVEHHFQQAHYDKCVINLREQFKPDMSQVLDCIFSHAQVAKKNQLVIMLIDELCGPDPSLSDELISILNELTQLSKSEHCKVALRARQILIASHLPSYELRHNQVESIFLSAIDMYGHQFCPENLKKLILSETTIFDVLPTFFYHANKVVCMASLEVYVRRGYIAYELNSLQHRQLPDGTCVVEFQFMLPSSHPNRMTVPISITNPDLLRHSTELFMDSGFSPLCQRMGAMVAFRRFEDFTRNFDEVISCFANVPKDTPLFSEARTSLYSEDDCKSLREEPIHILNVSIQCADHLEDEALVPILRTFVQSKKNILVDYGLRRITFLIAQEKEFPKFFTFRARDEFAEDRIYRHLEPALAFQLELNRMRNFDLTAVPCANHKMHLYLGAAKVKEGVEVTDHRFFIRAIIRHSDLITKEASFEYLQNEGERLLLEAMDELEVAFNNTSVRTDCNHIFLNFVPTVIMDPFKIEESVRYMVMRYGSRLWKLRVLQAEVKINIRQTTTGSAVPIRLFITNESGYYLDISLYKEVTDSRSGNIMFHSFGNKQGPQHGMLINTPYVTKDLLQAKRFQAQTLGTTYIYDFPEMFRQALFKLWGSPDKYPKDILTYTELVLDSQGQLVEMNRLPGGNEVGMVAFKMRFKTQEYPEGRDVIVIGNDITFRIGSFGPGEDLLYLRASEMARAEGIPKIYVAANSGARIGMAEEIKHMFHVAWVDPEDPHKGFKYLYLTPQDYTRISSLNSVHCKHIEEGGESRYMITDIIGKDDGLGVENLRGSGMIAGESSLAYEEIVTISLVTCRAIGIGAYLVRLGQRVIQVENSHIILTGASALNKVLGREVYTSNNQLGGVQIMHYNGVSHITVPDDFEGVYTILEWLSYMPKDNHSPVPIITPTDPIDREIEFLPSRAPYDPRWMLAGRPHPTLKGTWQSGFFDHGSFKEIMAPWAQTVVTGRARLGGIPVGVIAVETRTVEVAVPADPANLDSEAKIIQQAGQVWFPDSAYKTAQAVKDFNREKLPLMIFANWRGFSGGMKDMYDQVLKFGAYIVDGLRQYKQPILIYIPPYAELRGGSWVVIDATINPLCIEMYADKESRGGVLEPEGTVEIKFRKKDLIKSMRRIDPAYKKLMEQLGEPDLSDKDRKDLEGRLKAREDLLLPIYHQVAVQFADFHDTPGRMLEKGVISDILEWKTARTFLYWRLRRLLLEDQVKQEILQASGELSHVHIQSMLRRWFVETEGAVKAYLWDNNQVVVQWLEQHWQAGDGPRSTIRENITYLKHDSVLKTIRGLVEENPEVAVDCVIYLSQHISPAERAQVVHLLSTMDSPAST

On to `COc1ccc(F)cc1[C@H](Cn1c(=O)n([C@H]2CCNC2=O)c(=O)c2c(C)c(-n3nccn3)sc21)OC1CCOCC1` [Compound I-33, 1-((R)-2-(5-fluoro-2-methoxyphenyl)-2-((tetrahydro-2H-pyran-4-yl)oxy)ethyl)-5-methyl-3-((S)-2-oxopyrrolidin-3-yl)-6-(2H-1,2,3-triazol-2-yl)thieno[2,3-d]pyrimidine-2,4(1H,3H)-dione], for which, on Human ACC2, the IC50 (usually the midpoint of a concentration-inhibition curve) is 2 to 10 nM. The results for the MIC (with C. krusei ATCC 6258 (setting [2]); in experiment [1] (setting [2]); in the experiment with C. albicans ATCC 90028 (setting [2])) were 1.1 to 2 µg/mL (≈ 1.88 to 3.42 µM), 2.1 to 4 µg/mL (≈ 3.59 to 6.84 µM) and 2.1 to 4 µg/mL (≈ 3.59 to 6.84 µM), respectively.

At Human ACC2, `COc1ccc(F)cc1[C@H](Cn1c(=O)n([C@H]2CCCNC2=O)c(=O)c2c(C)c(-c3ncco3)sc21)OCCO` [Compound I-62, 1-((R)-2-(5-fluoro-2-methoxyphenyl)-2-(2-hydroxy-ethoxy)ethyl)-5-methyl-6-(oxazol-2-yl)-3-((S)-2-oxopiperidin-3-yl)thieno[2,3-d]pyrimidine-2,4(1H,3H)-dione] registered an IC50 of 10 to 100 nM. Besides, the MIC (with C. krusei ATCC 6258 (setting [2]); in experiment [1] (setting [2]); in the experiment on C. albicans ATCC 90028 (setting [2])) was 2.1 to 4 µg/mL (≈ 3.76 to 7.16 µM) in each case.

At Human ACC2, `COc1ccc(F)cc1[C@H](Cn1c(=O)n(C2CCCNC2=O)c(=O)c2c(C)c(-c3ncco3)sc21)OC1CCOCC1` (stereo partly drawn) [Compound I-51, 1-((R)-2-(5-fluoro-2-methoxyphenyl)-2-((tetrahydro-2H-pyran-4-yl)oxy)ethyl)-5-methyl-6-(oxazol-2-yl)-3-(2-oxopiperidin-3-yl)thieno[2,3-d]pyrimidine-2,4(1H,3H)-dione] had an IC50 of 10 to 100 nM. Besides, the MIC (in general, the smallest concentration in the dilution series that meets the test's criterion for growth inhibition) lay in the range of 2.1 to 4 µg/mL (≈ 3.51 to 6.68 µM) in the experiment with C. krusei ATCC 6258 (setting [2]), 2.1 to 4 µg/mL (≈ 3.51 to 6.68 µM) in experiment [1] (setting [2]) and 1.1 to 2 µg/mL (≈ 1.84 to 3.34 µM) with C. albicans ATCC 90028 (setting [2]).

On Human ACC2, `COc1ccccc1[C@H](Cn1c(=O)n(C2CCCNC2=O)c(=O)c2c(C)c(-c3ncco3)sc21)OC1CCOCC1` (stereo partly drawn) [Compound I-49, 1-((R)-2-(2-methoxyphenyl)-2-((tetrahydro-2H-pyran-4-yl)oxy)ethyl)-5-methyl-6-(oxazol-2-yl)-3-(2-oxopiperidin-3-yl)thieno[2,3-d]pyrimidine-2,4(1H,3H)-dione] came in with an IC50 of 10 to 100 nM. Besides, the MIC in the experiment on C. krusei ATCC 6258 (setting [2]) was in the range of 2.1 to 4 µg/mL (≈ 3.62 to 6.89 µM); in experiment [1] (setting [2]), 2.1 to 4 µg/mL (≈ 3.62 to 6.89 µM); in the experiment on C. albicans ATCC 90028 (setting [2]) it was 1.1 to 2 µg/mL (≈ 1.89 to 3.44 µM).

On to `COc1ccc(F)cc1[C@H](Cn1c(=O)n(C2CCN(C(C)C)C2=O)c(=O)c2c(C)c(-n3nccn3)sc21)OC1CCOCC1` (stereo in doubt) [Compound I-138, 1-((R)-2-(5-fluoro-2-methoxyphenyl)-2-((tetrahydro-2H-pyran-4-yl)oxy)ethyl)-3-((S)-1-isopropyl-2-oxopyrrolidin-3-yl)-5-methyl-6-(2H-1,2,3-triazol-2-yl)thieno[2,3-d]pyrimidine-2,4(1H,3H)-dione], for which the IC50 against Human ACC2 is 2 to 10 nM. Further, the “MIC C. krusei ATCC 6258” value with C. krusei ATCC 6258 (setting [2]) is listed as “A (provided an MIC of 0.25-1.0 μg/mL)”. In experiment [1] (setting [2]), the MIC lay within 2.1 to 4 µg/mL (≈ 3.35 to 6.38 µM). Also, the “MIC C. albicans ATCC 90028” value in the experiment on C. albicans ATCC 90028 (setting [2]) is recorded as “A (provided an MIC of 0.25-1.0 μg/mL)”.

With `COCCO[C@@H](Cn1c(=O)n([C@H]2CCN(C)C2=O)c(=O)c2c(C)c(-n3nccn3)sc21)c1cc(F)ccc1OCC#N` [Compound I-160, 2-(4-fluoro-2-((R)-1-(2-methoxyethoxy)-2-(5-methyl-3-((S)-1-methyl-2-oxopyrrolidin-3-yl)-2,4-dioxo-6-(2H-1,2,3-triazol-2-yl)-3,4-dihydrothieno[2,3-d]pyrimidin-1(2H)-yl)ethyl)phenoxy)acetonitrile], on Human ACC2, the IC50 was 10 to 100 nM. Further, the MIC (in the experiment on C. krusei ATCC 6258; in experiment [1]; in the experiment with C. albicans ATCC 90028) was 2.1 to 4 µg/mL (≈ 3.51 to 6.69 µM) each time.

For `COc1ccc(F)cc1[C@H](Cn1c(=O)n([C@@H]2CCCNC2=O)c(=O)c2c(C)c(-n3nccn3)sc21)OC1CCOCC1` [Compound I-38, 1-((R)-2-(5-fluoro-2-methoxyphenyl)-2-((tetrahydro-2H-pyran-4-yl)oxy)ethyl)-5-methyl-3-((R)-2-oxopiperidin-3-yl)-6-(2H-1,2,3-triazol-2-yl)thieno[2,3-d]pyrimidine-2,4(1H,3H)-dione], at Human ACC2, the IC50 lay in the range of 10 to 100 nM. Moreover, the MIC (in the experiment with C. krusei ATCC 6258 (setting [2]); in experiment [1] (setting [2]); in the experiment with C. albicans ATCC 90028 (setting [2])) was 2.1 to 4 µg/mL (≈ 3.51 to 6.68 µM) in each case.
